Assay results reported in patent publication US4307072A, “N-Triiodobenzoylaminoacyl polyhydroxic amines” (Mallinckrodt, Inc., priority 1977, dated 1981).
≈ marks a conversion by molar mass, not a printed value.

Columns and labels:
Sprague Dawley rats = assay: Intracisternal toxicity study in rats (LD50); format: in vivo; details: cisterna magna, single dose, seven days, concentration I W/V: Example 1 35.0, Example 2 11.25, Example 3 14.1, Example 5 35.0
Procedure: (§1) Intravenous, intracerebral and intracisternal acute toxicities of the compounds of Examples 1-5 were determined according to the following procedures.
Intracisternal toxicity study in rats
The method of intracisternal administration of contrast media in rats was based on the procedure outlined by Melartin, et al. (Investigative Radiology, Jan. - Feb. 13, 12, 1970). Sprague Dawley rats were anesthetized with ether and positioned on a slanted stand. Following clipping of their hair on the nuchal and cervical area, a small midline incision was made in the skin in the occipital area to facilitate penetration of a 27 gauge needle into the cisterna magna. […] Single measured doses of the contrast medium were then injected.
Following injection, the animals were individually housed and observed for pharmacological and toxicological manifestations. Mortalities were recorded during the first four hours, then daily for seven days. Calculation of the LD50 value was carried out according to the method of Litchfield and Wilcoxon (J. Pharmacol. Exp. Ther. 96, 99-113, 1949)

Swiss albino mice [1] = assay: Intravenous toxicity study in mice (seven-day LD50); format: in vivo; details: lateral tail vein, 1 ml./min., concentration I W/V: Example 1 26.3, Example 2 11.25, Example 3 28.2, Example 5 28.0
Procedure: as §1
Intravenous toxicity study in mice
Swiss albino mice with weights ranging from 18 to 25 grams were used for the performance of the test. Three to four groups of mice with sexes equally represented in each group received single measured doses (mg. of contrast media/kg of body weight) injected into a lateral tail vein at a rate of 1 ml./min.
Mortalities were recorded during the first four hours then daily for seven days. After seven days, surviving animals were sacrificed and necropsies performed.
Calculation of the seven-day LD50 value was carried out according to the method of Litchfield and Wilcoxon (J. Pharmacol. Exp. Ther. 96, 99-113, 1949)

Swiss albino mice [2] = assay: Intracerebral toxicity study in mice (48 hours LD50); format: in vivo; details: 0.05 ml. (0.1 ml. maximum), concentration I W/V: Example 1 26.3, Example 2 11.25, Example 3 28.2, Example 5 28.2
Procedure: as §1
Intracerebral toxicity study in mice
Swiss albino mice of either sex, weighing 18 to 23 grams were used for this test according to the method of Haley (Brit. J. Pharmcol. 12, 12-15 1957). At each dose level, the contrast medium was injected as follows. The mouse was grasped firmly by the loose skin behind the head. After the skin was pulled taut, a 3/8 inch 27 gauge needle attached to a 0.25 ml. syringe was inserted perpendicularly through the skull into the brain at a point 2 mm. from either side of the mid line on a line drawn through the anterior base on the ears. A dose of 0.05 ml. (0.1 ml. maximum) of various concentrations of the contrast medium was injected.
Mortalities were recorded during the first four hours, then daily for two days. Surviving animals were sacrificed 48 hours after injection and the LD50 value was calculated according to the method of Litchfield and Wilcoxon (J. Pharmacol. Exp. Ther. 96, 99-113, 1949).

physchem = details: water

CC(=O)Nc1c(I)c(C(=O)NCC(=O)N[C@@H](CO)[C@@H](O)[C@H](O)[C@H](O)CO)c(I)c(N(C)C(C)=O)c1I [Example 1, 2-(3-Acetamido-2,4,6-triiodo-5-N-methylacetamidobenzoylglycylamino)-2-deoxy-D-glucitol]
Intracisternal LD50 (Sprague Dawley rats): ~525 mg. I/kg.
solubility (Solubility in water): 1000 mg/mL (≈ 1180 mM)
solubility (Solubility in water; water): ~1000 mg/mL (≈ 1180 mM)
Intravenous LD50 (Swiss albino mice [1]): ~10,000 mg. I/kg.
Intracerebral LD50 (Swiss albino mice [2]): ~1550 mg. I/kg.

CNC(=O)c1c(I)c(NC(C)=O)c(I)c(C(=O)NCC(=O)N[C@@H](CO)[C@@H](O)[C@H](O)[C@H](O)CO)c1I [Example 2, 2-Deoxy-2-(3-Acetamido-2,4,6-triiodo-5-N-methylcarbamyl-benzoylglycylamino)-D-glucitol]
Intracisternal LD50 (Sprague Dawley rats): < 200 mg. I/kg.
solubility (Solubility in water; water): ~50 mg/mL (≈ 59.9 mM)
Intravenous LD50 (Swiss albino mice [1]): > 7,500 mg. I/kg.
Intracerebral LD50 (Swiss albino mice [2]): > 543 mg. I/kg.

CC(=O)Nc1c(I)c(C(=O)NCC(=O)N(C)CC(O)CO)c(I)c(C(=O)NCC(=O)N(C)CC(O)CO)c1I (centres unmarked) [Example 3, (5-Acetamido-2,4,6-triiodoisophthaloyl)-N,N'-bis-2,3-dihydroxypropyl-N,N'-dimethyl-bis glycinamide]
Intracisternal LD50 (Sprague Dawley rats): 100 mg. I/kg.
Intravenous LD50 (Swiss albino mice [1]): > 15,000 mg. I/kg.
solubility (physchem): ~1000 mg/mL (≈ 1120 mM)
Intracerebral LD50 (Swiss albino mice [2]): ~1425 mg. I/kg.

CC(=O)Nc1c(I)c(C(=O)NCC(=O)N(C)C[C@H](O)[C@@H](O)[C@H](O)[C@H](O)CO)c(I)c(N(C)C(C)=O)c1I [Example 5, N-(3-Acetamido-2,4,6-triiodo-5-N-methylacetamidobenzoylglycyl)-1-(methylamino)-1-deoxy-D-glucitol]
Intracisternal LD50 (Sprague Dawley rats): 400 mg. I/kg.
solubility (Solubility in water; water): ~1000 mg/mL (≈ 1160 mM)
Intravenous LD50 (Swiss albino mice [1]): ~8,000 mg. I/kg.
Intracerebral LD50 (Swiss albino mice [2]): ~1100 mg. I/kg.
